# Experimental data from paper PMC3891821, “Discovery of Bile Salt Hydrolase Inhibitors Using an Efficient High-Throughput Screening System” (PLoS ONE, 2014).
# Counter-ions that a name gives are not always drawn.
# Target: T1, rBSH (recombinant bile salt hydrolase) (Ligilactobacillus salivarius, UniProt J7H3P9)
# T1 construct: His-tagged full-length BSH, E. coli host, Ni-NTA purified
# T1 sequence (J7H3P9 2-324): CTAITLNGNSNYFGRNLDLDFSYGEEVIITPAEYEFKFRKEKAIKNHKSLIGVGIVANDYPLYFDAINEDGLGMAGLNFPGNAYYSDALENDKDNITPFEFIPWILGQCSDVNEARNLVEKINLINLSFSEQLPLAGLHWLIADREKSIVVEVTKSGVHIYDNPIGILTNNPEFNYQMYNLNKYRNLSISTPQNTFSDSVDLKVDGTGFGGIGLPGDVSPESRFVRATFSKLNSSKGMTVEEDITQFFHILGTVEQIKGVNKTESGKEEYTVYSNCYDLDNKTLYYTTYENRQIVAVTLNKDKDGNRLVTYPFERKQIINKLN
# Test: microplate precipitation assay, A600
# Assay type: biochemical
# Conditions: pH 6.0, 37 C, DTT
row,Structure (SMILES),"microplate precipitation assay, A600"
1,C[C@H](CCC(=O)NCCS(=O)(=O)O)[C@H]1CC[C@H]2[C@@H]3CC[C@@H]4C[C@H](O)CC[C@]4(C)[C@H]3C[C@H](O)[C@]12C [taurodeoxycholic acid],taurodeoxycholic acid was better than other tested conjugated bile salts

# Target: T1, rBSH (recombinant bile salt hydrolase)
# Test: two-step assay, amino acid release
# Assay type: biochemical
# Conditions: 37 C
row,Structure (SMILES),"two-step assay, amino acid release"
1,C[C@H](CCC(=O)NCC(=O)O)[C@H]1CC[C@H]2[C@@H]3[C@H](O)C[C@@H]4C[C@H](O)CC[C@]4(C)[C@H]3C[C@H](O)[C@]12C [sodium glycocholate],ascertain the amount of liberated amino acids from sodium glycocholate

# Target: T1, rBSH (recombinant bile salt hydrolase)
# Test: two-step BSH assay, amino acid released from glycocholate
# Assay type: biochemical
# Conditions: not given
# Excerpt: two-step BSH assay, amino acid released from glycocholate on rBSH (recombinant bile salt hydrolase)
Structure (SMILES),inhibition at 5000 µM,inhibition at 1000 µM
CC(C)c1cc2c(c(O)c1O)[C@@]1(C(=O)O)CCCC(C)(C)[C@@H]1CC2 [Carnosic Acid],96.8%,–
CC[C@H]1OC(=O)[C@H](C)[C@@H](O[C@H]2C[C@@](C)(OC)[C@@H](O)[C@H](C)O2)[C@H](C)[C@@H](O[C@@H]2O[C@H](C)C[C@H](N(C)C)[C@H]2O)[C@](C)(O)C[C@@H](C)C(=O)[C@H](C)[C@@H](O)[C@]1(C)O [Erythromycin],36.5%,–
O=c1c(O)c(-c2ccc(O)c(O)c2)oc2c(O)c(O)cc(O)c12 [Gossypetin],97.3%,–
CCC[C@@H]1C[C@@H](C(=O)N[C@@H]([C@H]2O[C@H](SC)[C@H](O)[C@@H](O)[C@H]2O)[C@@H](C)O)N(C)C1 [Lincomycin],67.3%,–
CN(C)[C@@H]1C(=O)C(C(N)=O)=C(O)[C@@]2(O)C(=O)C3=C(O)c4c(O)cccc4[C@@](C)(O)[C@H]3[C@H](O)[C@@H]12 [Oxytetracycline],97.4%,–
CC[C@H]1OC(=O)C[C@@H](O)[C@H](C)[C@@H](O[C@@H]2O[C@H](C)[C@@H](O[C@H]3C[C@@](C)(O)[C@@H](O)[C@H](C)O3)[C@H](N(C)C)[C@H]2O)[C@@H](CC=O)C[C@@H](C)C(=O)/C=C/C(C)=C/[C@@H]1CO[C@@H]1O[C@H](C)[C@@H](O)[C@@H](OC)[C@H]1OC [Tylosin],23.8%,–

# Continued, values first:
inhibition at 5000 µM,inhibition at 1000 µM,Structure (SMILES)
99.7%,–,O=C(/C=C/c1ccc(O)c(O)c1)OCCc1ccccc1 [Caffeic Acid Phenethyl Ester]
61.8%,–,CC1=C(C(=O)O)N2C(=O)[C@@H](NC(=O)[C@H](N)C3=CCC=CC3)[C@H]2SC1 [Cephradine]
61.2%,–,Cc1onc(-c2ccccc2Cl)c1C(=O)N[C@@H]1C(=O)N2[C@@H]1SC(C)(C)[C@@H]2C(=O)O [Cloxacillin]
92%,–,CN(C)[C@@H]1C(O)=C(C(N)=O)C(=O)[C@@]2(O)C(O)=C3C(=O)c4c(O)ccc(Cl)c4[C@@H](O)[C@H]3C[C@@H]12 [Demeclocycline Hydrochloride]
92.9%,–,C[C@H]1c2cccc(O)c2C(O)=C2C(=O)[C@]3(O)C(O)=C(C(N)=O)C(=O)[C@@H](N(C)C)[C@@H]3[C@@H](O)[C@@H]21 [Doxycycline Hydrochloride]
98.6%,–,O=C(O[C@@H]1Cc2c(O)cc(O)cc2O[C@@H]1c1ccc(O)c(O)c1)c1cc(O)c(O)c(O)c1 [Epicatechin monogallate]
87.2%,–,CC1=CC(=O)c2ccccc2C1=O [Menadione]
90.2%,–,C=C1c2cccc(O)c2C(=O)C2=C(O)[C@]3(O)C(=O)C(C(N)=O)=C(O)[C@@H](N(C)C)[C@@H]3[C@@H](O)[C@H]12 [Methacycline Hydrochloride]
83%,–,O=c1c(O)cccc2cc(O)c(O)c(O)c12 [Purpurogallin]
–,99.3%,Cc1cc2nc3c(=O)[nH]c(=O)nc-3n(C[C@H](O)[C@H](O)[C@H](O)CO)c2cc1C [Riboflavin]
48.7%,–,Cc1cc(C)nc(NS(=O)(=O)c2ccc(N)cc2)n1 [Sulfamethazine]

# Same assay, conditions: 5000 µM; sodium glycocholate; 30 min preincubation, 37 C
row,Structure (SMILES),% Inhibition
1,O=[N+]([O-])c1cc([As](=O)(O)O)ccc1O [Roxarsone],98.4%
